Measurements reported in ChEMBL document CHEMBL2176866, “Progress in the development and application of small molecule inhibitors of bromodomain-acetyl-lysine interactions” (J Med Chem, 2012).

How the values were obtained:
[1] = Half life in mouse; format: ADME, organism-based; settings: in vivo
[2] = AUC (infinity) in mouse; format: ADME, organism-based; design: time infinity; settings: plasma

SMILES | half-life [1] [h] | AUC(0-inf) [2] [µM·h]
CCNC(=O)C[C@@H]1N=C(c2ccc(Cl)cc2)c2cc(OC)ccc2-n2c(C)nnc21 [MOLIBRESIB] | 1.6 | 40
COc1cc2c(cc1-c1c(C)noc1C)ncc1[nH]c(=O)n([C@H](C)c3ccccn3)c12 | 7.2 | 680
